The values below come from publication PMC4773385, “Drug design from the cryptic inhibitor envelope” (Nature Communications, 2016).

In brackets after ≈: the same amount, converted by molar mass. Read-outs that look alike come from different tables or passages of the source.

One test addresses T1, Escherichia coli LpxC (Escherichia coli, UniProt P0A725).
T1 sequence (P0A725 1-305): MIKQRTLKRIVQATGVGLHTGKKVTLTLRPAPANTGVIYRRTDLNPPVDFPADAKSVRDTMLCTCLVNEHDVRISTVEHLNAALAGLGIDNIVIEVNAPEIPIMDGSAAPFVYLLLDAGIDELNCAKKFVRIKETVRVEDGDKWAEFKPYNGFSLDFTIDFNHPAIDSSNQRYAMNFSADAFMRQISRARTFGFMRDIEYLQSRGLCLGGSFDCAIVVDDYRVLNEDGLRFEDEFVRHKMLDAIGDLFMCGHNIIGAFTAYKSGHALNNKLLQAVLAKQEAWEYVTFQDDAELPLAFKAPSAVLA
The test can be described thus: LpxC enzymatic assay (radiolabelled substrate, slow tight-binding kinetics). Format: biochemical. The method, then:
The radiolabelled substrate for the LpxC enzymatic assays, [α-^32P] UDP-3-O-[(R)-3-hydroxymyristoyl]-N-acetylglucosamine, and the unlabelled carrier substrate were prepared as previously described. […] Serial twofold dilutions of each inhibitor were prepared in DMSO and added to the reaction mixture with a 10-fold dilution. The assays were initiated by addition of purified LpxC protein into the reaction mix with 1:4 dilution to the final concentration as specified.
The KM value was determined by varying substrate concentrations from 0.4 to 50 μM with 0.2 nM of LpxC. To study the slow, tight-binding inhibition, LpxC activity was assessed in the presence of varying inhibitor concentrations. […] The following time-dependent equation was used to fit the data: […]
The Ki* was determined by analysing the rate of product accumulation after formation of the stable EI* complex. […] The Morrison's quadratic equation was used to fit the fractional activity data to determine Ki^*app:
where [E]T and [I]T represent the total enzyme and inhibitor concentrations, respectively. The inhibition constant Ki* is converted from Ki^*app according to the following relationship:
For two-step slow-binding inhibition, kinetic parameters k5, k6 and Ki were extracted from curve fitting of experimental kobs values to inhibitor concentrations based on equations (5 and 6).

A further test has as its system Escherichia coli W3110. Nature of the test: MIC assay. The note with it: for MIC: E. coli. Type of test: cell-based.
For test [1], the system named is Pseudomonas aeruginosa PAO1. Nature of the test: MIC assay. Type of test: cell-based.
Test [2] has as its system Salmonella typhimurium LT2. Nature of the test: MIC assay. Format: cell-based.
The test system of test [3] is Vibrio cholerae P4 (P27459DctxAB::KmR, SmR). Nature of the test: MIC assay. Format: cell-based. Further details: MIC: unit not given here.
For test [4], the system named is Klebsiella pneumoniae 10031. Nature of the test: MIC assay. Type of test: cell-based. Further details: MIC: unit not given here.
The next test deals with Enterobacter cloacae. The test can be described thus: MIC assay. Format: cell-based. Set-up: MIC: unit not given here.
The next test deals with Morganella morganii. The test can be described thus: MIC assay. Type of test: cell-based.
In another test the test system is Proteus mirabilis. Nature of the test: MIC assay. Further details: MIC: unit not given here. Type of test: cell-based.
A further test relates to Chlamydia trachomatis. The test can be described thus: Minimal chlamydiacidal concentration (MCC). Format: cell-based. Further details: Minimal chlamydiacidal concentration (MCC), listed in MIC column: unit not given here.
The subject of test [5] is Acinetobacter baumannii 17978. The test can be described thus: MIC assay. Format: cell-based.
Where [6] appears, read: E. coli LpxC, 20 pM enzyme, 5 μM substrate, 30 °C, Morrison fit, read-out: Ki* (inhibition constant of the stable EI* complex).
The mark [7] stands for this setting: fit of kobs vs inhibitor concentration, 30 μM substrate, 0.1 nM enzyme.

In the case of `C[C@](O)([C@H](NC(=O)c1ccc(C#CC#Cc2ccc(N)cc2)cc1)C(=O)NO)C(F)(F)F` [LPC-083], at Escherichia coli LpxC (E. coli LpxC), the “compromised inhibitory effect (Ki*) over parent compound LPC-037” value is recorded as “ninefold” and the “inhibition constant worse than LPC-011” value is listed as “fivefold”. Moreover, the Ki on Escherichia coli LpxC (setting [6]) worked out at 0.125 ± 0.004 nM. In the test on Escherichia coli W3110, this molecule showed an MIC of 0.1 µg/mL (≈ 0.225 µM).
Consider `CC(C)(O)[C@H](NC(=O)c1ccc(C#CC#Cc2ccc(N)cc2)cc1)C(=O)NO` [LPC-037], for which, at Escherichia coli LpxC (setting [6]), the Ki is 0.014 ± 0.001 nM.
As for `C[C@@](O)(C(F)F)[C@H](NC(=O)c1ccc(C#CC#Cc2ccc(N)cc2)cc1)C(=O)NO` [LPC-058], at Escherichia coli LpxC (E. coli LpxC), the “enhancement of potency (Ki*) over CHIR-090” value is recorded as 44 fold. The “enhancement of potency (Ki*) over LPC-011” value at Escherichia coli LpxC (E. coli LpxC) is given as 7 fold. For the same molecule, the Ki was determined as 0.0035 ± 0.0002 nM at Escherichia coli LpxC (setting [6]) and 0.973 ± 0.128 nM at Escherichia coli LpxC (fit of kobs vs inhibitor concentration, 30 μM substrate, 0.1 nM enzyme, Ki* constrained, read-out: Ki (inhibition constant of the initial encounter complex EI)). Besides, the “k5 (forward rate from EI to EI*)” value at Escherichia coli LpxC (setting [7]) amounted to 0.39 ± 0.02 min⁻¹. Besides, the “k6 (reverse rate from EI* to EI)” value on Escherichia coli LpxC (setting [7]) is 0.0014 ± 0.0001 min⁻¹. In addition, the “Enhancement (MIC CHIR-090/MIC LPC-058)” value in the test with Escherichia coli W3110 (Escherichia coli W3110) stood at 7.2; in test [1], 5.0; in test [2] it was 12; in [3], 31; in test [4] it was 13; in the test on Enterobacter cloacae, 12. The “Enhancement (MIC CHIR-090/MIC LPC-058)” value in the test with Morganella morganii is 55; in the test on Proteus mirabilis, 32; with Chlamydia trachomatis (MCC), 100; in test [5] (Acinetobacter baumannii 17978), greater than 128. Also, the “Enhancement (MIC LPC-011/MIC LPC-058)” value in the test on Escherichia coli W3110 (Escherichia coli W3110) is given as 2.2; in test [1], 2.0; in [2], 2.8; in [3], 3.9; in test [4] it was 3.8; in the test on Enterobacter cloacae it was 2.0. Besides, the “Enhancement (MIC LPC-011/MIC LPC-058)” value with Morganella morganii was determined as 2.0; in the test with Proteus mirabilis it was 5.0; in the test on Chlamydia trachomatis (MCC) it was 6.0; in test [5] (Acinetobacter baumannii 17978) it was 25. In addition, the MIC in test [1] stood at 0.167 µg/mL (≈ 0.391 µM); in [2], 0.021 µg/mL (≈ 0.0491 µM); in test [3] it was 0.016; in test [4], 0.0026; in the test on Enterobacter cloacae, 0.026; against Morganella morganii it was 0.019 g/mL. Moreover, the MIC with Proteus mirabilis is 0.026; in [5] (Acinetobacter baumannii), 0.39 µg/mL (≈ 0.912 µM). In addition, in the test on Chlamydia trachomatis, the “Minimal chlamydiacidal concentration (MCC), listed in MIC column” value stood at 0.08.
Turning to `CC(C)(N)[C@H](NC(=O)c1ccc(C#CC#Cc2ccc(N)cc2)cc1)C(=O)NO` [LPC-040], the Ki at Escherichia coli LpxC (setting [6]) was found to be 0.012 ± 0.001 nM.
In the case of `C[C@@H](O)[C@H](NC(=O)c1ccc(C#CC#Cc2ccc(N)cc2)cc1)C(=O)NO` [LPC-011], the MIC was 0.04 µg/mL (≈ 0.106 µM) against Escherichia coli W3110; 0.06 µg/mL (≈ 0.159 µM) in test [2]; 0.063 in test [3]; 0.01 in test [4]; 0.052 in the test on Enterobacter cloacae; 0.039 g/mL in the test on Morganella morganii. Also, in the test on Proteus mirabilis, the MIC was 0.13.
